Laboratory results: patent US20250129104A1, “7H-PYRROLO[2,3-D]PYRIMIDINES AND PREPARATION AND USES THEREOF” (BioSplice Therapeutics, Inc., priority 2021, published 2025)

Biological target: recombinant DYRK1A kinase (Homo sapiens (Human), UniProt Q13627)
Assay: DYRK1A kinase assay (Ser/Thr 18 peptide Z-lyte FRET assay)
Format: biochemical
Conditions: DYRK1A kinase activity; 15 μM ATP, 1 h room temperature; method text calls the value IC50
Outline: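 FRET Z-lyte read-out (coumarin/fluorescein ratio, % phosphorylation) after 1 h development; IC50 from non-linear curve fit. Reaction: 0.25 μg/mL recombinant human DYRK1A, Ser/Thr 18 peptide 4 μM, ATP 15 μM, compound in 11-point 1:3 series from 10 μM, 1 h, room temperature, duplicate wells.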

Compound	EC50
CO[C@H]1CC[C@H](Nc2ncc3c(-c4ccn5nccc5n4)c[nH]c3n2)CC1 [Compound 3420, N-(trans-4-Methoxycyclohexyl)-5-(pyrazolo[1,5-a]pyrimidin-5-yl)-7H-pyrrolo[2,3-d]pyrimidin-2-amine]	5.6 nM
COc1nc(NC2CC3(COC3)C2)nc2[nH]cc(-c3ccn4nccc4c3)c12 [Compound 3321, 4-Methoxy-5-(pyrazolo[1,5-a]pyridin-5-yl)-N-(2-oxaspiro[3.3]heptan-6-yl)-7H-pyrrolo[2,3-d]pyrimidin-2-amine]	37.5 nM
CCOc1ncc2c(-c3cc(F)c4ncc(C)n4c3)c[nH]c2n1 [Compound 293, 2-Ethoxy-5-(8-fluoro-3-methylimidazo[1,2-a]pyridin-6-yl)-7H-pyrrolo[2,3-d]pyrimidine]	93.6 nM
COc1nc(N[C@H]2CC[C@@H](OC(F)(F)F)CC2)nc2[nH]cc(-c3ccc4nnn(C)c4c3)c12 [Compound 2289, 4-Methoxy-5-(1-methyl-1H-benzo[d][1,2,3]triazol-6-yl)-N-(cis-4-(trifluoromethoxy)cyclohexyl)-7H-pyrrolo[2,3-d]pyrimidin-2-amine]	1480 nM
Cc1nc2cc(F)c(-c3c[nH]c4nc(C5CC5)ncc34)cc2n1C(C)C [Compound 539, 2-Cyclopropyl-5-(5-fluoro-1-isopropyl-2-methyl-1H-benzo[d]imidazol-6-yl)-7H-pyrrolo[2,3-d]pyrimidine]	40.8 nM
COc1nc(NCC(C)(C)F)nc2[nH]cc(-c3ccn4nccc4n3)c12 [Compound 2325, N-(2-Fluoro-2-methylpropyl)-4-methoxy-5-(pyrazolo[1,5-a]pyrimidin-5-yl)-7H-pyrrolo[2,3-d]pyrimidin-2-amine]	87 nM
COc1nc(N[C@H]2CC[C@@H](OC(F)F)CC2)nc2[nH]cc(-c3ccn4nccc4c3)c12 [Compound 2211, N-(cis-4-(Difluoromethoxy)cyclohexyl)-4-methoxy-5-(pyrazolo[1,5-a]pyridin-5-yl)-7H-pyrrolo[2,3-d]pyrimidin-2-amine]	126 nM
CC(C)Oc1nc(N[C@H]2CC[C@@](C)(O)CC2)nc2[nH]cc(-c3ccn4nccc4c3)c12 [Compound 2320, cis-4-((4-Isopropoxy-5-(pyrazolo[1,5-a]pyridin-5-yl)-7H-pyrrolo[2,3-d]pyrimidin-2-yl)amino)-1-methylcyclohexan-1-ol]	59.4 nM
Cn1cc2cc(-c3c[nH]c4nc(NCC(C)(C)F)ncc34)ccc2n1 [Compound 492, N-(2-Fluoro-2-methylpropyl)-5-(2-methyl-2H-indazol-5-yl)-7H-pyrrolo[2,3-d]pyrimidin-2-amine]	123 nM
Cn1cc(-c2ncnc3[nH]cc(-c4ccc5ncccc5c4)c23)cn1 [Compound 1897, 6-(4-(1-methyl-1H-pyrazol-4-yl)-7H-pyrrolo[2,3-d]pyrimidin-5-yl)quinoline]	18.1 nM
FC(F)(F)CCNc1ncc2c(-c3ccc4ncnn4c3)c[nH]c2n1 [Compound 736, 5-([1,2,4]Triazolo[1,5-a]pyridin-6-yl)-N-(3,3,3-trifluoropropyl)-7H-pyrrolo [2,3-d]pyrimidin-2-amine]	45.8 nM
CCOc1nc(N[C@H](C)C(F)(F)F)nc2[nH]cc(-c3ccc4nnn(C)c4c3)c12 [Compound 2196, (R)-4-Ethoxy-5-(1-methyl-1H-benzo[d][1,2,3]triazol-6-yl)-N-(1,1,1-trifluoropropan-2-yl)-7H-pyrrolo[2,3-d]pyrimidin-2-amine]	11.6 nM
Fc1cc(-c2c[nH]c3nc(C4CC4)ncc23)cn2c(C(F)F)cnc12 [Compound 359, 2-Cyclopropyl-5-(3-(difluoromethyl)-8-fluoroimidazo[1,2-a]pyridin-6-yl)-7H-pyrrolo[2,3-d]pyrimidine]	115 nM
C[C@@H](Nc1ncc2c(-c3ccc4nccnc4c3)c[nH]c2n1)C(F)(F)F [Compound 1916, (R)-5-(Quinoxalin-6-yl)-N-(1,1,1-trifluoropropan-2-yl)-7H-pyrrolo[2,3-d]pyrimidin-2-amine]	6 nM
COc1nc(NCC(C)(C)F)nc2[nH]cc(-c3cc(F)c4nccn4c3)c12 [Compound 2255, N-(2-Fluoro-2-methylpropyl)-5-(8-fluoroimidazo[1,2-a]pyridin-6-yl)-4-methoxy-7H-pyrrolo[2,3-d]pyrimidin-2-amine]	19 nM
COC[C@@H](C)Nc1nc(OC)c2c(-c3ccc4nc(C)n(CC(F)F)c4n3)c[nH]c2n1 [Compound 2278, (R)-5-(3-(2,2-Difluoroethyl)-2-methyl-3H-imidazo[4,5-b]pyridin-5-yl)-4-methoxy-N-(1-methoxypropan-2-yl)-7H-pyrrolo[2,3-d]pyrimidin-2-amine]	1000 nM
CN1CCN(c2cc(Nc3ncc4c(-c5ccc6c(c5)CCCO6)c[nH]c4n3)ccn2)CC1 [Compound 1768, 5-(Chroman-6-yl)-N-(2-(4-methylpiperazin-1-yl)pyridin-4-yl)-7H-pyrrolo [2,3-d]pyrimidin-2-amine]	34.8 nM
COc1nc(N[C@@H]2CCOC[C@@H]2F)nc2[nH]cc(-c3ccn4nccc4c3)c12 [Compound 2317, N-((3R,4R)-3-Fluorotetrahydro-2H-pyran-4-yl)-4-methoxy-5-(pyrazolo[1,5-a]pyridin-5-yl)-7H-pyrrolo[2,3-d]pyrimidin-2-amine]	107 nM
COc1nc(NCC(C)(C)F)nc2[nH]cc(-c3ccc4nnn(C)c4c3)c12 [Compound 2283, N-(2-Fluoro-2-methylpropyl)-4-methoxy-5-(1-methyl-1H-benzo[d][1,2,3]triazol-6-yl)-7H-pyrrolo[2,3-d]pyrimidin-2-amine]	47.4 nM
COc1nc(NC2CCC(F)(F)CC2)nc2[nH]cc(-c3cnc4nccn4c3)c12 [Compound 2268, N-(4,4-Difluorocyclohexyl)-5-(imidazo[1,2-a]pyrimidin-6-yl)-4-methoxy-7H-pyrrolo[2,3-d]pyrimidin-2-amine]	9.9 nM

Continued, values first:

EC50	Compound
1.1 nM	COc1nc(N[C@H]2CC[C@](C)(O)CC2)nc2[nH]cc(-c3cc(F)c4nccn4c3)c12 [Compound 2494, trans-4-((5-(8-Fluoroimidazo[1,2-a]pyridin-6-yl)-4-methoxy-7H-pyrrolo[2,3-d]pyrimidin-2-yl)amino)-1-methylcyclohexan-1-ol]
4.3 nM	COc1nc(N[C@H]2CC[C@@](C)(O)CC2)nc2[nH]cc(-c3ccn4nccc4c3)c12 [Compound 2208, cis-4-((4-Methoxy-5-(pyrazolo[1,5-a]pyridin-5-yl)-7H-pyrrolo[2,3-d]pyrimidin-2-yl)amino)-1-methylcyclohexan-1-ol]
1.4 nM	[2H]C([2H])([2H])Oc1nc(N[C@H]2CC[C@@H](OC)CC2)nc2[nH]cc(-c3ccn4nccc4c3)c12 [Compound 3311, 4-(Methoxy-d3)—N-(cis-4-methoxycyclohexyl)-5-(pyrazolo[1,5-a]pyridin-5-yl)-7H-pyrrolo[2,3-d]pyrimidin-2-amine]
2.1 nM	COc1nc(N[C@H](C)C(F)(F)F)nc2[nH]cc(-c3ccc4nnn(C)c4c3)c12 [Compound 2193, (R)-4-Methoxy-5-(1-methyl-1H-benzo[d][1,2,3]triazol-6-yl)-N-(1,1,1-trifluoropropan-2-yl)-7H-pyrrolo[2,3-d]pyrimidin-2-amine]
0.8 nM	c1cnc2ccc(-c3c[nH]c4nc(Nc5ccncc5)ncc34)cc2c1 [Compound 1892, N-(pyridin-4-yl)-5-(quinolin-6-yl)-7H-pyrrolo[2,3-d]pyrimidin-2-amine]
1.7 nM	COc1nc(N[C@H]2CC[C@@H](O)CC2)nc2[nH]cc(-c3ccn4nccc4c3)c12 [Compound 2207, cis-4-((4-Methoxy-5-(pyrazolo[1,5-a]pyridin-5-yl)-7H-pyrrolo[2,3-d]pyrimidin-2-yl)amino)cyclohexan-1-ol]
3.4 nM	COCCO[C@H]1CC[C@@H](Nc2ncc3c(-c4ccn5nccc5c4)c[nH]c3n2)CC1 [Compound 2203, N-(cis-4-(2-Methoxyethoxy)cyclohexyl)-5-(pyrazolo[1,5-a]pyridin-5-yl)-7H-pyrrolo[2,3-d]pyrimidin-2-amine]
4.4 nM	C[C@]1(O)CC[C@@H](Nc2ncc3c(-c4ccc5ncnn5c4)c[nH]c3n2)CC1 [Compound 3018, (1s,4s)-4-((5-([1,2,4]Triazolo[1,5-a]pyridin-6-yl)-7H-pyrrolo[2,3-d]pyrimidin-2-yl)amino)-1-methylcyclohexan-1-ol]
3.1 nM	OCCO[C@H]1CC[C@@H](Nc2ncc3c(-c4cc(F)c5nccn5c4)c[nH]c3n2)CC1 [Compound 2182, 2-((cis-4-((5-(8-Fluoroimidazo[1,2-a]pyridin-6-yl)-7H-pyrrolo[2,3-d]pyrimidin-2-yl)amino)cyclohexyl)oxy)ethan-1-ol]
4.6 nM	CC(C)(F)CNc1ncc2c(-c3ccn4nccc4c3)c[nH]c2n1 [Compound 1125, N-(2-Fluoro-2-methylpropyl)-5-(pyrazolo[1,5-a]pyridin-5-yl)-7H-pyrrolo [2,3-d]pyrimidin-2-amine]
3.4 nM	CNc1nc(N[C@H]2CC[C@](C)(O)CC2)nc2[nH]cc(-c3ccn4nccc4n3)c12 [Compound 3454, trans-1-methyl-4-((4-(methylamino)-5-(pyrazolo[1,5-a]pyrimidin-5-yl)-7H-pyrrolo[2,3-d]pyrimidin-2-yl)amino)cyclohexan-1-ol]
2.2 nM	FC(F)CO[C@H]1CC[C@@H](Nc2ncc3c(-c4ccc5nccn5n4)c[nH]c3n2)CC1 [Compound 2199, N-(cis-4-(2,2-Difluoroethoxy)cyclohexyl)-5-(imidazo[1,2-b]pyridazin-6-yl)-7H-pyrrolo[2,3-d]pyrimidin-2-amine]
5.5 nM	COC[C@@H](C)Nc1nc(OC)c2c(-c3ccc4nnn(C)c4c3)c[nH]c2n1 [Compound 2194, (R)-4-Methoxy-N-(1-methoxypropan-2-yl)-5-(1-methyl-1H-benzo[d][1,2,3]triazol-6-yl)-7H-pyrrolo[2,3-d]pyrimidin-2-amine]
0.5 nM	CN1CCN(c2cc(Nc3ncc4c(-c5ccc6ncccc6c5)c[nH]c4n3)ccn2)CC1 [Compound 1893, N-(2-(4-Methylpiperazin-1-yl)pyridin-4-yl)-5-(quinolin-6-yl)-7H-pyrrolo [2,3-d]pyrimidin-2-amine]
